The source of these data is ChEMBL document CHEMBL3585342, “Exploring the isoform selectivity of TGX-221 related pyrido[1,2-a]pyrimidinone-based Class IA PI 3-kinase inhibitors: synthesis, biological evaluation and molecular modelling” (Bioorg Med Chem, 2015).

A short description of test [1]: Inhibition of cell proliferation of human NZOV9 cells containing wild-type p53 protein and p110alpha Y1021C mutant incubated for 5 days by [3H]thymidine incorporation assay. The format is functional, cell-based.
The target in test [2] is Phosphatidylinositol 4,5-bisphosphate 3-kinase catalytic subunit beta isoform (Homo sapiens, UniProt P42338). It is filed as cell-based, Sf9.
Description: Inhibition of N-terminal His-tagged human p110beta expressed in Sf9 cells co-expressing p85alpha regulatory subunit using phosphatidylinositol substrate and [gamma-33P]-ATP by basic thin layer chromatography technique based lipid kinase assay
Test [3] is described as follows: Inhibition of cell proliferation of human NZB5 cells containing wild-type p110alpha gene incubated for 5 days by [3H]thymidine incorporation assay. The format is functional, cell-based.
Test [4] has as its target Phosphatidylinositol 4,5-bisphosphate 3-kinase catalytic subunit alpha isoform (Homo sapiens, UniProt P42336). The format is cell-based, Sf9.
Description: Inhibition of N-terminal His-tagged human p110alpha expressed in Sf9 cells co-expressing p85alpha regulatory subunit using phosphatidylinositol substrate and [gamma-33P]-ATP by basic thin layer chromatography technique based lipid kinase assay
The target of test [5] is T1, Phosphatidylinositol 4,5-bisphosphate 3-kinase catalytic subunit delta isoform (Homo sapiens, UniProt O00329).
T1 sequence (O00329 whole entry): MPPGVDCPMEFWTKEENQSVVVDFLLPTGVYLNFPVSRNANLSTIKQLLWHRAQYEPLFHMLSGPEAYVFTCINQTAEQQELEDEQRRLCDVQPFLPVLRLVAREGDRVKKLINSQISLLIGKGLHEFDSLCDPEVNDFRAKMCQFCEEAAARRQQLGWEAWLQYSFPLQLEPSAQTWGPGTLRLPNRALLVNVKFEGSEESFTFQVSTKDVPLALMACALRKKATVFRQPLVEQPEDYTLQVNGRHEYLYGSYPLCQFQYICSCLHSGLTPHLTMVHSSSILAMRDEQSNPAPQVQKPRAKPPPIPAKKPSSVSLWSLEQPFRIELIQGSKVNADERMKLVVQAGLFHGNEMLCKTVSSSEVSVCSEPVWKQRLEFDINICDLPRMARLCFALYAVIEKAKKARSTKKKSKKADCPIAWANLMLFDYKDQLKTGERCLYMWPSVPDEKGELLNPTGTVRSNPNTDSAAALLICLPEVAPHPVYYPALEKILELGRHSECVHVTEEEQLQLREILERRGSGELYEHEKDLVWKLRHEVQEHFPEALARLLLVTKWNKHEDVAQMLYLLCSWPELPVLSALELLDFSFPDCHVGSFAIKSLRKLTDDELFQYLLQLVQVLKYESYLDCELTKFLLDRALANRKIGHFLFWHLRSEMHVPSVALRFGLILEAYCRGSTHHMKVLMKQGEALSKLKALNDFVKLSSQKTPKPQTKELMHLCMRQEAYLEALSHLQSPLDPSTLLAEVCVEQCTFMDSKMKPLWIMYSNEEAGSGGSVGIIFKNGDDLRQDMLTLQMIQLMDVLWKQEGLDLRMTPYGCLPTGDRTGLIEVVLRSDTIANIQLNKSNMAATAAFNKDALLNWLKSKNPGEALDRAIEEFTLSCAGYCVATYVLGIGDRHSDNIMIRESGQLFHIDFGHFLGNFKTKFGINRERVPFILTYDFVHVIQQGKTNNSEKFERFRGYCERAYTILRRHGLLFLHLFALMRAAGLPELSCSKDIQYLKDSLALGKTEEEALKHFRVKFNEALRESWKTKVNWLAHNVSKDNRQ
It is filed as cell-based, Sf9.
Description: Inhibition of N-terminal His-tagged human p110delta expressed in Sf9 cells co-expressing p85alpha regulatory subunit using phosphatidylinositol substrate and [gamma-33P]-ATP by basic thin layer chromatography technique based lipid kinase assay

Sequence of Phosphatidylinositol 4,5-bisphosphate 3-kinase catalytic subunit alpha isoform (P42336 whole entry, canonical isoform): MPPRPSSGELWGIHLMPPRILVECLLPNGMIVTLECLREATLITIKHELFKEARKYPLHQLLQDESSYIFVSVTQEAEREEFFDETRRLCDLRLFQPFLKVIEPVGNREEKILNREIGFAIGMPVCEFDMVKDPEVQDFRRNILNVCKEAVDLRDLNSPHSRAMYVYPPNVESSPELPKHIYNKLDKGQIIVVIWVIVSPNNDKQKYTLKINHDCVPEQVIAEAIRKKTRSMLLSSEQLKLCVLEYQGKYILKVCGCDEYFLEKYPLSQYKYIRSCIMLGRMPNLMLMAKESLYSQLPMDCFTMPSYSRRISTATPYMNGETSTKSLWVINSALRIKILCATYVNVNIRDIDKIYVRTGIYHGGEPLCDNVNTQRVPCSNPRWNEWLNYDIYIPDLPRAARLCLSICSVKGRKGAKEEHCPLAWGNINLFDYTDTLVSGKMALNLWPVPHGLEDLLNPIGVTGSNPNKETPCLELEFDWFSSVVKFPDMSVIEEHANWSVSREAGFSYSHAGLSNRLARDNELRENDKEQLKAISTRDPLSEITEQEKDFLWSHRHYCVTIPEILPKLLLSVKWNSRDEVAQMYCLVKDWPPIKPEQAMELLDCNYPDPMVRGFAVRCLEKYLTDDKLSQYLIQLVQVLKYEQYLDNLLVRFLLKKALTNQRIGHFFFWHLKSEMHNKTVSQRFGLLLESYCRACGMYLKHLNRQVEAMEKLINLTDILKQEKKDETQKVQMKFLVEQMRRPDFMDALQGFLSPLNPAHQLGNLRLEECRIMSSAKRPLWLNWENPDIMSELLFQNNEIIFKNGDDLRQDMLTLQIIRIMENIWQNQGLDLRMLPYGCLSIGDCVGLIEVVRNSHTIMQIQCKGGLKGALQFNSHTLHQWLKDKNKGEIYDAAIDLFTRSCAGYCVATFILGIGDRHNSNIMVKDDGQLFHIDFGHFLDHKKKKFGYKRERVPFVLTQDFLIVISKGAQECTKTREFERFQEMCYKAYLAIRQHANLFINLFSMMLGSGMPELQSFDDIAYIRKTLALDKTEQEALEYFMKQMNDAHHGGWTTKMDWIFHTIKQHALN
Sequence of Phosphatidylinositol 4,5-bisphosphate 3-kinase catalytic subunit beta isoform (P42338 whole entry, canonical isoform): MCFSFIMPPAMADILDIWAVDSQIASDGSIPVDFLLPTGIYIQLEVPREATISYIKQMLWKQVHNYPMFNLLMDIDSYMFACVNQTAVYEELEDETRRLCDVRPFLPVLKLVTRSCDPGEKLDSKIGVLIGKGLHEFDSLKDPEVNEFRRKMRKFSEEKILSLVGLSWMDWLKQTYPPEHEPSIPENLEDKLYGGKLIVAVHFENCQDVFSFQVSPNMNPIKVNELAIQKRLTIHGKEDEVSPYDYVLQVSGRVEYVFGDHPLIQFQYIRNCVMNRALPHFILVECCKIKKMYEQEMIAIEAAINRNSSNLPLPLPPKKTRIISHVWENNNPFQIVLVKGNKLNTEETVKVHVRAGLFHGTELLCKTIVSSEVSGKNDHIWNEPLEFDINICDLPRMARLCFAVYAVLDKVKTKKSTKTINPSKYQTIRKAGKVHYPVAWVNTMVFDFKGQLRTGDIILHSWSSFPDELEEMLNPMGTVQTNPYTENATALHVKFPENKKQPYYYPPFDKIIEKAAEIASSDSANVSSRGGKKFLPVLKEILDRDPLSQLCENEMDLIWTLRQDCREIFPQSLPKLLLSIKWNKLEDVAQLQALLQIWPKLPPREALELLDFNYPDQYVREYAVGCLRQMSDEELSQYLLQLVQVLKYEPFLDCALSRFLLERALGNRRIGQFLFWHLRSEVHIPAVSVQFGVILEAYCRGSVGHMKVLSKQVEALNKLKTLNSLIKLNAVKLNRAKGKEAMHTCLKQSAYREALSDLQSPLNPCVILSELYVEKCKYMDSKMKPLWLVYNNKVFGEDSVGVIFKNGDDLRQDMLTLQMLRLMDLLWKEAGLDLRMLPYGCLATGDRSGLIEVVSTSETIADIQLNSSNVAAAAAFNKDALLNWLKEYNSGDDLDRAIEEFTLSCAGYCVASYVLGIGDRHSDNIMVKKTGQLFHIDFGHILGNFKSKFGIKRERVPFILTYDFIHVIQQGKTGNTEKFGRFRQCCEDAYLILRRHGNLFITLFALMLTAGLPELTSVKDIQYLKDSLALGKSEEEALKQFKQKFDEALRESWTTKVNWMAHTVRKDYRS

Turning to `Cc1cc(NCc2ccccc2C)c2nc(N3CCOCC3)cc(=O)n2c1`, the IC50 amounted to 5000 nM in test [1], 20 nM in test [2] and 1500 nM in test [3].

Take `O=c1cc(N2CCOCC2)nc2c(CS(=O)(=O)c3ccccc3)cccn12`: the IC50 was over 20000 nM in test [1]; over 10000 nM in test [4]; 4800 nM in test [2]; over 10000 nM in test [5]; over 20000 nM in test [3].

For the compound `O=c1cc(N2CCOCC2)nc2c(CNc3ccccc3)cccn12`, the IC50 was determined as 1100 nM in test [4], 30 nM in test [2] and 470 nM in test [5].

As for `CN(Cc1cccn2c(=O)cc(N3CCOCC3)nc12)c1ccccc1`, the IC50 in test [1] was 10000 nM; in test [4], 790 nM; in test [2] it was 30 nM; in test [5], 270 nM; in test [3], 12000 nM.

Take `Cc1ccccc1NCc1cccn2c(=O)cc(N3CCOCC3)nc12`: the IC50 in test [4] amounted to 1800 nM; in test [2] it was 20 nM; in test [5] it was 470 nM.

Turning to `Cc1cccc(NCc2cccn3c(=O)cc(N4CCOCC4)nc23)c1`, the IC50 in test [4] was 1100 nM; in test [2], 240 nM; in test [5] it was 810 nM; in test [3] it was 3000 nM.

For the compound `Cc1ccc(NCc2cccn3c(=O)cc(N4CCOCC4)nc23)cc1`, the IC50 in test [1] is 5800 nM; in test [4], 6800 nM; in test [2], 4600 nM; in test [5], 710 nM; in test [3], 5500 nM.

On to `O=c1cc(N2CCOCC2)nc2c(CNc3ccc(Cl)cc3)cccn12`, for which the IC50 is 15000 nM in test [1]; 3100 nM in test [4]; 310 nM in test [2]; 1100 nM in test [5]; over 20000 nM in test [3].

For the compound `COc1ccc(NCc2cccn3c(=O)cc(N4CCOCC4)nc23)cc1`, the IC50 in test [1] turned out to be 9600 nM; in test [4], 350 nM; in test [2], 2100 nM; in test [5], 240 nM; in test [3], 340 nM.

Consider `Cc1ccc(S(=O)(=O)NCc2cccn3c(=O)cc(N4CCOCC4)nc23)cc1`, for which the IC50 is over 20000 nM in test [1]; 6500 nM in test [4]; 7400 nM in test [2]; 600 nM in test [5]; 18000 nM in test [3].

Turning to `O=c1cc(N2CCOCC2)nc2c(CSc3ccccc3)cccn12`, the IC50 in test [1] came to 6300 nM; in test [4], 1500 nM; in test [2], 570 nM; in test [5], 570 nM; in test [3], 7800 nM.

`O=c1cc(N2CCOCC2)nc2c(COc3ccccc3)cccn12`: the IC50 came to 11000 nM in test [1]; 1500 nM in test [4]; 230 nM in test [2]; 470 nM in test [5]; 17000 nM in test [3].

For `Cc1ccc(OCc2cccn3c(=O)cc(N4CCOCC4)nc23)cc1`, the IC50 stood at 8200 nM in test [1]; 2500 nM in test [4]; 1000 nM in test [2]; 550 nM in test [5]; 13000 nM in test [3].

In the case of `COc1ccc(OCc2cccn3c(=O)cc(N4CCOCC4)nc23)cc1`, the IC50 in test [1] was 14000 nM; in test [4], 1600 nM; in test [2], 1400 nM; in test [5], 460 nM; in test [3], 13000 nM.

On to `Cc1cc(Nc2ccccc2C)c2nc(N3CCOCC3)cc(=O)n2c1`, for which the IC50 stood at 2200 nM in test [1], 1500 nM in test [4], 1100 nM in test [2] and 310 nM in test [5].

On to `Cc1cc(C(C)Nc2ccccc2)c2nc(N3CCOCC3)cc(=O)n2c1` (racemic), for which the IC50 is 1200 nM in test [1], 1000 nM in test [4], 140 nM in test [5] and 2800 nM in test [3].

Consider `Cc1cc(C(C)N(C)c2ccccc2)c2nc(N3CCOCC3)cc(=O)n2c1` (racemic), for which the half-inhibitory concentration (IC50) worked out at 1500 nM in test [4], 20 nM in test [2] and 220 nM in test [5].
